Laboratory results published in US9708318B2, “Bicyclic heterocycles as FGFR4 inhibitors” (Incyte Corporation, priority 2015, dated 2017).
Read-outs that look alike come from different tables or passages of the source.

Key:
[1] = biological target: FGFR1 (Homo sapiens (Human), UniProt P11362); test: FGFR Enzymatic Assay (FRET peptide phosphorylation), FGFR1
[2] = biological target: FGFR3 enzyme (Homo sapiens (Human), UniProt P22607); test: FGFR Enzymatic Assay (FRET peptide phosphorylation), FGFR3; assay type: biochemical; conditions: for FGFR1/FGFR3 IC50 ratio / FGFR4/FGFR3 IC50 ratio: FGFR3 selectivity; for IC50: read-out: FGFR3 IC50
Protocol: (§1) The inhibitor potency of the exemplified compounds was measured in an enzyme assay that measures peptide phosphorylation using FRET measurements to detect product formation. Inhibitors were serially diluted in DMSO and a volume of 0.5 μL was transferred to the wells of a 384-well plate.
(§2) GraphPad prism3 was used to analyze the data.

[3] = biological target: FGFR2 (Homo sapiens (Human), UniProt P21802); test: FGFR Enzymatic Assay (FRET peptide phosphorylation), FGFR2; assay type: biochemical
Protocol: as §1
(§3) The enzymes were purchased from Millipore or Invitrogen.
as §2

[4] = biological target: FGFR4 (Homo sapiens (Human), UniProt P22455); test: FGFR Enzymatic Assay (FRET peptide phosphorylation), FGFR4; assay type: biochemical; conditions: for FGFR1/FGFR4 IC50 ratio / FGFR2/FGFR4 IC50 ratio / FGFR3/FGFR4 IC50 ratio: FGFR4 selectivity
Protocol: as §1, §3, §2

[5] = FGFR1 IC50 (nM), pre-incubated for 4 hours
[6] = FGFR1 IC50 (nM), pre-incubated for 5 to 10 minutes
[7] = read-out: FGFR1 IC50, pre-incubated for 4 hours
[8] = pre-incubated for 5 to 10 minutes
[9] = read-out: FGFR1 IC50, pre-incubated for 5 to 10 minutes

Sequence of FGFR2 (P21802 22-821): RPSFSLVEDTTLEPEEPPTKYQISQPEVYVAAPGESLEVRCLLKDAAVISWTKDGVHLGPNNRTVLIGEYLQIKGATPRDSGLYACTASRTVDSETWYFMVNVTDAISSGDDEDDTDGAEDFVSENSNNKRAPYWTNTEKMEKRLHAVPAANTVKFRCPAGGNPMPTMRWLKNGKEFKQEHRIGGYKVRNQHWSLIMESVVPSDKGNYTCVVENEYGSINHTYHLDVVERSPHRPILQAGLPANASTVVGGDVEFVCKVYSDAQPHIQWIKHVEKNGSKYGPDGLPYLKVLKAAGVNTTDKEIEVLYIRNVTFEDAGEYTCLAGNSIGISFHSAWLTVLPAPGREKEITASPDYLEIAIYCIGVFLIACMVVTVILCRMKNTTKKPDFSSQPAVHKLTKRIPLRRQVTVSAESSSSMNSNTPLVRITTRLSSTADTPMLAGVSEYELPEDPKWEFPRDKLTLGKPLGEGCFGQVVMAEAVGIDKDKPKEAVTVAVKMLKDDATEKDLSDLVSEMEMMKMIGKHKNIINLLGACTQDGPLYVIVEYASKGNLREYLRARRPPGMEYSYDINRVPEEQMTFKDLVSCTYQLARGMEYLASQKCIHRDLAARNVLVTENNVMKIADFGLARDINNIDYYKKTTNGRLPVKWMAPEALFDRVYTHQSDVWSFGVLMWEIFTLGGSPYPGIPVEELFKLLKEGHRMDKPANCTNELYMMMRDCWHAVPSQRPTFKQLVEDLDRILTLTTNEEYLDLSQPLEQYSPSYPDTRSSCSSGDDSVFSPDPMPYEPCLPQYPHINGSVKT
Sequence of FGFR1 (P11362 22-822): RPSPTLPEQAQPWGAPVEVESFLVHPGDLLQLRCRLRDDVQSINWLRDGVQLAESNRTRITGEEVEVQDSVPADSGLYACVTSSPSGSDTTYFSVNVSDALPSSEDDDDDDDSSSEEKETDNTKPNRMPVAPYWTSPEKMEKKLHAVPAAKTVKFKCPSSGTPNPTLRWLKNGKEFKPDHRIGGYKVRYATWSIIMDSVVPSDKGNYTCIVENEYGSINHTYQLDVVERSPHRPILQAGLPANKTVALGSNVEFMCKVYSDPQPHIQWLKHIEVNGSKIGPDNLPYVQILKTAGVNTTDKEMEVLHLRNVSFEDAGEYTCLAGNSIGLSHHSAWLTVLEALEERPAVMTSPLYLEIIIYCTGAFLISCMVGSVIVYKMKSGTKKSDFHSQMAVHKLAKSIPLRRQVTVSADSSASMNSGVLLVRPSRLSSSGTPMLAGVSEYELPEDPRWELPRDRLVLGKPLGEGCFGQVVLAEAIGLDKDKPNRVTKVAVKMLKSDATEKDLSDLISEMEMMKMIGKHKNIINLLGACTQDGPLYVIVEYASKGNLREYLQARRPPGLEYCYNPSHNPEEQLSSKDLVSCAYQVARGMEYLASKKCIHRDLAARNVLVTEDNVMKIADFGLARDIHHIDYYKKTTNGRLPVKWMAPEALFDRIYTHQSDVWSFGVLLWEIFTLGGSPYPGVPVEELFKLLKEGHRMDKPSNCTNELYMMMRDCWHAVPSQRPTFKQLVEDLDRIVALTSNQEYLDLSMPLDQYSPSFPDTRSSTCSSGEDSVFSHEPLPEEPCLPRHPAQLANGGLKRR
Sequence of FGFR4 (P22455 22-802): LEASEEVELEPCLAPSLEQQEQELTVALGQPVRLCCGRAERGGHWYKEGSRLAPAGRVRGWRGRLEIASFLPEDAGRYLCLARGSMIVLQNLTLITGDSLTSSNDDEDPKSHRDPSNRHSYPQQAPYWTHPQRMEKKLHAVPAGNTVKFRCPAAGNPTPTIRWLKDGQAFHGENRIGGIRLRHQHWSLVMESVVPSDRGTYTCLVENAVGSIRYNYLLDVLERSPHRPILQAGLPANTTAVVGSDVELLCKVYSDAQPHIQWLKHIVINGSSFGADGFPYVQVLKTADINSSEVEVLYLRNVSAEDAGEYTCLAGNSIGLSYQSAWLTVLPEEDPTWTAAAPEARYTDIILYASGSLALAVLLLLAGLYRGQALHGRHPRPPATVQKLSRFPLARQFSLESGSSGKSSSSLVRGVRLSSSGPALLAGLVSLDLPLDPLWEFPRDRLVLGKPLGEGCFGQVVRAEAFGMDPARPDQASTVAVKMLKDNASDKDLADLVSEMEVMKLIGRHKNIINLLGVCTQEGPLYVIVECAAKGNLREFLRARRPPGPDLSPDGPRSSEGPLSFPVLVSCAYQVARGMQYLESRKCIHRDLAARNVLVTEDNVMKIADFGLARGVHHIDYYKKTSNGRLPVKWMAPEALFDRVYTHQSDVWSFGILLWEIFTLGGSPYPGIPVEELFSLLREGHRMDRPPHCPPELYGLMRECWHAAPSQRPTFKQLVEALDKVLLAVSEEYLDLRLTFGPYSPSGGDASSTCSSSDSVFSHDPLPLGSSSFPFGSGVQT
Sequence of FGFR3 enzyme (P22607 23-806): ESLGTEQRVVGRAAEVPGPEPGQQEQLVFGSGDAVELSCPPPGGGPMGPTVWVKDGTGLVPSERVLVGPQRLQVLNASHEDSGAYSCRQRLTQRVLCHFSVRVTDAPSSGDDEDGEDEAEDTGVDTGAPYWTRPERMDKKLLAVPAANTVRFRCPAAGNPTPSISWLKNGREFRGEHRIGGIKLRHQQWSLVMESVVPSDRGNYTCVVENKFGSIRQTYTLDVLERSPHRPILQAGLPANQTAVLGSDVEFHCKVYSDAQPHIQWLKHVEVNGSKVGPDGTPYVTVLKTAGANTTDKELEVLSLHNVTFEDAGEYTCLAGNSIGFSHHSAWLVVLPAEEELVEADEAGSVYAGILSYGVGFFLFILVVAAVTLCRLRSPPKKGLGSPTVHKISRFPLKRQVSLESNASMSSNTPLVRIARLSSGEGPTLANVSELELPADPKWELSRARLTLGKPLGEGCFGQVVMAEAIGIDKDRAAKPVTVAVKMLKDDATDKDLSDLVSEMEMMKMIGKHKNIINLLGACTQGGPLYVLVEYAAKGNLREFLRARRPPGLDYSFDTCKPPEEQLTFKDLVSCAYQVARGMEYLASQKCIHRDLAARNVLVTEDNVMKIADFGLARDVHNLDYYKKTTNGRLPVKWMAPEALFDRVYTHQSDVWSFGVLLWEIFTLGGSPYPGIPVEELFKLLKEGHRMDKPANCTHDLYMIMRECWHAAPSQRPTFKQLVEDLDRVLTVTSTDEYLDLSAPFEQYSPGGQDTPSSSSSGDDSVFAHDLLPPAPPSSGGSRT

SMILES	IC50 [1, 5] [nM]	FGFR1/FGFR3 IC50 ratio ([2]; pre-incubated for 4 hours)	FGFR4/FGFR3 IC50 ratio ([2]; pre-incubated for 4 hours)	IC50 ([2]; pre-incubated for 4 hours) [nM]	IC50 ([3]; pre-incubated for 4 hours) [nM]	IC50 ([4]; pre-incubated for 4 hours) [nM]	IC50 [1, 6] [nM]	IC50 [1, 7] [nM]	IC50 [2, 8] [nM]	IC50 [3, 8] [nM]	IC50 [4, 8] [nM]	IC50 [1, 9] [nM]	FGFR1/FGFR4 IC50 ratio [4, 8]	FGFR2/FGFR4 IC50 ratio [4, 8]	FGFR3/FGFR4 IC50 ratio [4, 8]	FGFR1/FGFR4 IC50 ratio ([4]; pre-incubated for 4 hours)	FGFR2/FGFR4 IC50 ratio ([4]; pre-incubated for 4 hours)	FGFR3/FGFR4 IC50 ratio ([4]; pre-incubated for 4 hours)
COc1cccc(N2C(=O)N(c3c(F)c(OC)cc(OC)c3F)Cc3cnc(-c4cn(C)nc4C)cc32)c1 [Example 109, 3-(2,6-difluoro-3,5-dimethoxyphenyl)-7-(1,3-dimethyl-1H-pyrazol-4-yl)-1-(3-methoxyphenyl)-3,4-dihydropyrido[4,3-d]pyrimidin-2(1H)-one]	10 to 30	>3	>10	< 10	< 10	30 to 200												
CCn1cc(-c2cc3c(cn2)CN(c2c(F)c(OC)cc(OC)c2F)C(=O)C32CC2)c(C)n1 [Example 158, 2′-(2,6-difluoro-3,5-dimethoxyphenyl)-6′-(1-ethyl-3-methyl-1H-pyrazol-4-yl)-1′H-spiro[cyclopropane-1,4′-[2,7]naphthyridin]-3′(2′H)-one]	30 to 200	>5	>3	< 10	< 10	10 to 30												
COc1cc(OC)c(F)c(N2Cc3cnc(-c4cn(C)nc4C)cc3N(c3ccc4cn[nH]c4c3)C2=O)c1F [Example 133, 3-(2,6-difluoro-3,5-dimethoxyphenyl)-7-(1,3-dimethyl-1H-pyrazol-4-yl)-1-(1H-indazol-6-yl)-3,4-dihydropyrido[4,3-d]pyrimidin-2(1H)-one]	10 to 30	>3	>5	< 10	< 10	30 to 200												
COc1cc(OC)c(F)c(N2Cc3cnc(-c4cn(C)nc4C)cc3N(c3ccnnc3)C2=O)c1F [Example 57, 3-(2,6-difluoro-3,5-dimethoxyphenyl)-7-(1,3-dimethyl-1H-pyrazol-4-yl)-1-(pyridazin-4-yl)-3,4-dihydropyrido[4,3-d]pyrimidin-2(1H)-one]		>10	>10	10 to 30	30 to 200	30 to 200	30 to 200	> 200	10 to 30	30 to 200	> 200							
COc1cc(OC)c(F)c(N2Cc3cnc(-c4cnn(C)c4)cc3C3(CC3)C2=O)c1F [Example 186, 2′-(2,6-difluoro-3,5-dimethoxyphenyl)-6′-(1-methyl-1H-pyrazol-4-yl)-1′,2′-dihydro-3′H-spiro[cyclopropane-1,4′-[2,7]naphthyridin]-3′-one]		>5	>5	< 10	< 10	< 10		< 10	< 10	< 10	< 10	< 10						
COc1cc(OC)c(F)c(N2Cc3cnc(-c4ccncc4)cc3C3(CC3)C2=O)c1F [Example 185, 2′-(2,6-difluoro-3,5-dimethoxyphenyl)-6′-(pyridin-4-yl)-1′H-spiro[cyclopropane-1,4′-[2,7]naphthyridin]-3′(2′H)-one]	10 to 30	>3	>3	< 10	< 10	10 to 30												
COc1cc(OC)c(F)c(N2Cc3cnc(-c4cn(C)nc4C)cc3N(c3cccc(-c4cnnn4C)c3)C2=O)c1F [Example 89, 3-(2,6-difluoro-3,5-dimethoxyphenyl)-7-(1,3-dimethyl-1H-pyrazol-4-yl)-1-(3-(1-methyl-1H-1,2,3-triazol-5-yl)phenyl)-3,4-dihydropyrido[4,3-d]pyrimidin-2(1H)-one]	10 to 30	>5	>10	< 10	< 10	30 to 200												
COc1cc(OC)c(F)c(N2Cc3cnc(-c4cncc(C(=O)N5CCOCC5)c4)cc3C3(CC3)C2=O)c1F [Example 13, 2′-(2,6-difluoro-3,5-dimethoxyphenyl)-6′-(5-(morpholine-4-carbonyl)pyridin-3-yl)-1′H-spiro[cyclopropane-1,4′-[2,7]naphthyridin]-3′(2′H)-one]		>3		30 to 200	30 to 200	< 10		> 200	30 to 200	30 to 200	< 10	> 200	>50	>20	>10	>50	>25	>10
COc1cc(OC)c(F)c(N2Cc3cnc(-c4cn(C5CCN(CC#N)C5)nc4C)cc3C3(CC3)C2=O)c1F (stereo not drawn) [Example 154, 2-(3-(4-(2′-(2,6-difluoro-3,5-dimethoxyphenyl)-3′-oxo-2′,3′-dihydro-1′H-spiro[cyclopropane-1,4′-[2,7]naphthyridine]-6′-yl)-3-methyl-1H-pyrazol-1-yl)pyrrolidin-1-yl)acetonitrile]	30 to 200	>5	>3	10 to 30	10 to 30	30 to 200												
COc1cc(OC)c(F)c(N2Cc3cnc(-c4cn(C)nc4C)cc3N(c3ccc(C#N)cn3)C2=O)c1F [Example 79, 6-(3-(2,6-difluoro-3,5-dimethoxyphenyl)-7-(1,3-dimethyl-1H-pyrazol-4-yl)-2-oxo-3,4-dihydropyrido[4,3-d]pyrimidin-1(2H)-yl)nicotinonitrile]	30 to 200	>5	>3	< 10	< 10	30 to 200												
COc1cc(OC)c(F)c(N2Cc3cnc(-c4ccc(C5(C#N)CCC5)nc4)cc3N(c3ccccn3)C2=O)c1F [Example 137, 1-(5-(3-(2,6-difluoro-3,5-dimethoxyphenyl)-2-oxo-1-(pyridin-2-yl)-1,2,3,4-tetrahydropyrido[4,3-d]pyrimidin-7-yl)pyridin-2-yl)cyclobutanecarbonitrile]							30 to 200		10 to 30	10 to 30	30 to 200							
COc1cc(OC)c(F)c(N2Cc3cnc(-c4cn(C)nc4C)cc3N(Cc3cnccn3)C2=O)c1F [Example 85, 3-(2,6-difluoro-3,5-dimethoxyphenyl)-7-(1,3-dimethyl-1H-pyrazol-4-yl)-1-(pyrazin-2-ylmethyl)-3,4-dihydropyrido[4,3-d]pyrimidin-2(1H)-one]	30 to 200	>5	>10	< 10	10 to 30	30 to 200												
COc1cc(OC)c(F)c(N2Cc3cnc(-c4cn(CCC#N)nc4C)cc3C3(CC3)C2=O)c1F [Example 156, 3-(4-(2′-(2,6-difluoro-3,5-dimethoxyphenyl)-3′-oxo-2′,3′-dihydro-1′H-spiro[cyclopropane-1,4,-[2,7]naphthyridine]-6′-yl)-3-methyl-1H-pyrazol-1-yl)propanenitrile]	30 to 200	>5	>1	< 10	10 to 30	10 to 30												
COc1cc(OC)c(F)c(N2Cc3cnc(-c4cncc(CN5CCOCC5)c4)cc3C3(CC3)C2=O)c1F [Example 16, 2′-(2,6-difluoro-3,5-dimethoxyphenyl)-6′-(5-(morpholinomethyl)pyridin-3-yl)-1′H-spiro[cyclopropane-1,4′-[2,7]naphthyridin]-3′(2′H)-one]		>1		30 to 200	30 to 200	< 10		> 200	30 to 200	30 to 200	< 10	> 200	>25	>10	>10	>50	>25	>10
